According to patent US7893197B2, “Relaxin-3 chimeric polypeptides and their preparation and use” (Janssen Pharmaceutica N.V., priority 2005, dated 2011):
One block for each substance: values may come before it. Ends that are not written are not given here.

Columns and labels:
[1] = tested on: [125I]-R3/I5 binding sites (GPCR135) in rat brain; experiment: Quantitative receptor autoradiography, inhibition of [125I]-R3/I5 binding on rat brain sections; details: 7 pM [125I]-R3/I5; all regions investigated
Chain of [125I]-R3/I5 binding sites (GPCR135) in rat brain (as listed by the source): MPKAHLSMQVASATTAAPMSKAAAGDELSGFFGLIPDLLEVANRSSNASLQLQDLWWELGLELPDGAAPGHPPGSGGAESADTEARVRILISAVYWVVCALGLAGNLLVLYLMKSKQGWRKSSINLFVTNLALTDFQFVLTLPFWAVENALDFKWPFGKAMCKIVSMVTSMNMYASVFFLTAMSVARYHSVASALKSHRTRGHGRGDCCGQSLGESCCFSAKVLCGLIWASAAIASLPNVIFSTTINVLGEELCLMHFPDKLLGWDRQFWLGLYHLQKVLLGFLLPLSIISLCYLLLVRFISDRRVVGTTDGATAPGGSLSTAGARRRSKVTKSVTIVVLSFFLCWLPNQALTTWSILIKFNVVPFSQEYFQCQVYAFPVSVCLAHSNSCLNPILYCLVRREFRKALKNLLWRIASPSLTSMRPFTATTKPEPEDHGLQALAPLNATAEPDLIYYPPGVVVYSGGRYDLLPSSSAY
Procedure: (§1) Rats were asphyxiated by carbon dioxide. Brains were immediately removed from the skull and rapidly frozen in dry-ice. Twenty-micron-thick frontal sections were cut using a Cryostat-microtome (Microm HM505E, Mikron, San Diego, Calif.) and thaw-mounted on adhesive microscope slides (Superfrost^+ Plus, VWR). The sections were kept at −70° C. until use. The sectioning protocol for the regional distribution study included series of coronal sections covering the entire brain.
Sections were thawed and dried under a cold air stream and then pre-incubated for 15 min. at room temperature in incubation buffer (20 mM HEPES, pH 7.4, 120 mM NaCl2, 0.22 mM KH2PO4, 1.3 mM CaCl2, 0.8 mM MgSO4) by immersing sections in a 400 ml jar. Sections were dried again under a cold air stream and incubated for 60 min. with 7 pM [^125I]-R3/I5 (specific activity, 2200 Ci/mmole) in incubation buffer containing 0.5% BSA and protease inhibitor cocktail. […] Nonspecific binding was determined in the presence of 100 nM of human R3. After incubation, the excess radioligand was washed off by immersing the slides in the jar containing incubation buffer at 4° C. (3 times 10 min.) followed by a quick immersion in water. Sections were dried and exposed to Fujifilm Imaging plates (BAS-MS 2025) for 48 hrs. […]

[2] = tested on: GPCR135 binding sites in rat brain; experiment: Receptor autoradiography, distribution of [125I]R3/I5 binding sites in rat brain; set-up: key: −: not detected; +: low density; ++: moderate density; +++: high density; details: 7 pM, n = 3
Chain of GPCR135 binding sites in rat brain (as listed by the source): as above
Procedure: as §1
Sections were thawed and dried under a cold air stream and then pre-incubated for 15 min. at room temperature in incubation buffer (20 mM HEPES, pH 7.4, 120 mM NaCl2, 0.22 mM KH2PO4, 1.3 mM CaCl2, 0.8 mM MgSO4) by immersing sections in a 400 ml jar. Sections were dried again under a cold air stream and incubated for 60 min. with 7 pM [^125I]-R3/I5 (specific activity, 2200 Ci/mmole) in incubation buffer containing 0.5% BSA and protease inhibitor cocktail. […] Nonspecific binding was determined in the presence of 100 nM of human R3. After incubation, the excess radioligand was washed off by immersing the slides in the jar containing incubation buffer at 4° C. (3 times 10 min.) followed by a quick immersion in water. Sections were dried and exposed to Fujifilm Imaging plates (BAS-MS 2025) for 48 hrs. The imaging plates were scanned using the Fuji Bio-Imaging Analyzer System (BAS-5000, Fuji Medical System, CT) and visualized using ImageGauge V3.12 software (Fuji Medical System, CT).
Cresyl-violet staining was performed on adjacent sections and the regions were identified using the rat brain atlas of Paxinos and Watson (Paxinos et al., 1998, The Rat Brain in Stereotaxic Coordinates, New York, Academic Press (publisher)). For illustration purposes, sections were exposed to autoradiography film ((Kodak Omat AR, Rochester N.Y.). After a 4-week exposure, they were automatically developed and fixed in a Konica SRY-101A machine (Konica Medical Corp., Wayne N.J.). Adobe Photoshop 7.0 and Illustrator 9.0 were used for preparation of the figures.

GPCR135 = target: T1, GPCR135 (Homo sapiens, UniProt Q9NSD7); experiment: Binding of radioligands to COS-7 cells transfected with GPCR135
T1 construct: expressed in transfected cells
T1 sequence (Q9NSD7 1-469): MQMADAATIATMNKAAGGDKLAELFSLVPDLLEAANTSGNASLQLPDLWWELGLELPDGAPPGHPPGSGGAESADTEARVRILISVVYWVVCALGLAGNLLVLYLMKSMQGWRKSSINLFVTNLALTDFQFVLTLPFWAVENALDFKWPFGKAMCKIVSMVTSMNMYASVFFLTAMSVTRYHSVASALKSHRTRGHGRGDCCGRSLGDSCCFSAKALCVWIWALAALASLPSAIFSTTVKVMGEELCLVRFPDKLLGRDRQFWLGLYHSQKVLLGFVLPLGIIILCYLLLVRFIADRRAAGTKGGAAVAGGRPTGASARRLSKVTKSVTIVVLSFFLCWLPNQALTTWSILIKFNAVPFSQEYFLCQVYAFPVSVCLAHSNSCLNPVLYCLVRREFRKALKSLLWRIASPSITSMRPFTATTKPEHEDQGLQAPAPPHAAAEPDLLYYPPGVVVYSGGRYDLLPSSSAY
Procedure: (§2) FIGS. 5A-5D illustrate a comparative analysis of the binding specificities of [^125I]-relaxin-3 and [^125I]-R3/I5 for GPCR135 and LGR7. COS-7 cells in 6-well culture dishes were transfected with human GPCR135 and LGR7, respectively. Mock transfected COS-7 cells were used as the negative controls. [^125I]-relaxin-3 (FIG. 5A) or [^125I]-R3/I5 (FIG. 5B) was added to cells at a final concentration of 100 pM either in the absence or presence of 1 uM of unlabeled relaxin-3 to determine total binding and non-specific binding, respectively. FIG. 5C depicts an autoradiogram of [^125]-relaxin-3 binding in rat brain sagittal section. FIG. 5D depicts an autoradiogram of non-specific binding of [^125]-relaxin-3 as determined in the presence of 100 nM of unlabeled relaxin-3. FIG. 5E depicts an autoradiogram of [^125]-R3/I5 binding in rat brain sagittal section. […] binding of [^125]-R3/I5 as determined in the presence of 100 nM of unlabeled relaxin-3.

LGR7 = target: T2, LGR7 (Homo sapiens, UniProt Q9HBX9); experiment: Binding of radioligands to COS-7 cells transfected with LGR7; details: radioligand 100 pM
T2 construct: Human LGR7 cDNA containing the complete coding region was PCR amplified; expressed in transfected cells
T2 sequence (Q9HBX9 1-757): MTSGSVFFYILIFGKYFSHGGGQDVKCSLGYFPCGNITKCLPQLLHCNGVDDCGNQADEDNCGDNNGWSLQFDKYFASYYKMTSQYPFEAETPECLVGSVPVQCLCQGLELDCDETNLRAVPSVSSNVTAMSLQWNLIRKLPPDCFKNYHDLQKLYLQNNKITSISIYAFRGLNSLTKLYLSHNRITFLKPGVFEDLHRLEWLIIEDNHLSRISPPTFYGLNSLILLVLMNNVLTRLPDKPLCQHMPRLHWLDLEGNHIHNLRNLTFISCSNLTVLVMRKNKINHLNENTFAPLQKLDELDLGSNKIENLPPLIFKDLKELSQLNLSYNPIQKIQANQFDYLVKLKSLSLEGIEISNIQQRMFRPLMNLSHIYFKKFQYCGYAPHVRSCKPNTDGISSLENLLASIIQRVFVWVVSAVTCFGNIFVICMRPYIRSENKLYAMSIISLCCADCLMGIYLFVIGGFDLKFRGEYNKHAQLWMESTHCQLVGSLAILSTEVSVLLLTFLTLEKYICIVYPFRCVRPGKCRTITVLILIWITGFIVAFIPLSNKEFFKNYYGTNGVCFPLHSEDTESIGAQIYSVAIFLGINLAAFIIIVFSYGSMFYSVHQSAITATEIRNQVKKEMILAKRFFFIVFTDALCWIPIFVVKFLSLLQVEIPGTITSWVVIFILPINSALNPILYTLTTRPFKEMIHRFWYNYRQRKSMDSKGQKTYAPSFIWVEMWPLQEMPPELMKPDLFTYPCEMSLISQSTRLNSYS
Procedure: as §2

Substance: Relaxin: human relaxin (R1) used as competitor in Example 6 (KWKDDVIKLCGRELVRAQIAICGMSTWSRPYVALFEKCCLIGCTKRSLAKYC)
- displacement of [125I]-R3/I5 binding sites, in words [1]: did not displace any significant amount of [^125I]-R3/I5 binding sites at concentrations of up to 100 nM

- [125I]R3/I5 binding sites, density ([2]; Amygdaloid body: Amygdalohippocampal area): +++
- [125I]R3/I5 binding sites, density ([2]; Amygdaloid body: Bed nucleus stria terminalis): ++
- [125I]R3/I5 binding sites, density ([2]; Amygdaloid body: Central nucleus): ++
- [125I]R3/I5 binding sites, density ([2]; Amygdaloid body: Lateral nucleus): ++
- [125I]R3/I5 binding sites, density ([2]; Amygdaloid body: Medial nucleus): ++
- [125I]R3/I5 binding sites, density ([2]; Brain stem: Dorsal raphe, dorsal part): +
- [125I]R3/I5 binding sites, density ([2]; Brain stem: Inferior colliculus): ++
- [125I]R3/I5 binding sites, density ([2]; Brain stem: Interpeduncular nucleus): +++
- [125I]R3/I5 binding sites, density ([2]; Brain stem: Nucleus incertus): ++
- [125I]R3/I5 binding sites, density ([2]; Brain stem: Periaqueductal gray area): ++
- [125I]R3/I5 binding sites, density ([2]; Brain stem: Spinal trigeminal tract): ++
- [125I]R3/I5 binding sites, density ([2]; Brain stem: Superior colliculus): +++
- [125I]R3/I5 binding sites, density ([2]; Cortex: Motor): ++
- [125I]R3/I5 binding sites, density ([2]; Cortex: Piriform): ++
- [125I]R3/I5 binding sites, density ([2]; Cortex: Somatosensory): ++
- [125I]R3/I5 binding sites, density ([2]; Cortex: Temporal): ++
- [125I]R3/I5 binding sites, density ([2]; Cortex: Visual): ++
- [125I]R3/I5 binding sites, density ([2]; Habenula: Medial): ++
- [125I]R3/I5 binding sites, density ([2]; Hippocampal formation: CAB field): +
- [125I]R3/I5 binding sites, density ([2]; Hippocampal formation: Dentate gyrus): +
- [125I]R3/I5 binding sites, density ([2]; Hypothalamus: Lateral nucleus): −
- [125I]R3/I5 binding sites, density ([2]; Hypothalamus: Paraventricular nucleus): ++
- [125I]R3/I5 binding sites, density ([2]; Hypothalamus: Supraoptic nucleus): ++
- [125I]R3/I5 binding sites, density ([2]; Olfactory System: Anterior olfactory nucleus): +++
- [125I]R3/I5 binding sites, density ([2]; Olfactory System: Olfactory bulb): +++
- [125I]R3/I5 binding sites, density ([2]; Septal region: Lateral): +
- [125I]R3/I5 binding sites, density ([2]; Thalamus: Centro lateral): ++
- [125I]R3/I5 binding sites, density ([2]; Thalamus: Centro medial): ++
- [125I]R3/I5 binding sites, density ([2]; Thalamus: Paraventricular): ++
- binding to GPCR135 expressing cells, in words (GPCR135; radioligand 100 pM): high affinity
Substance: [^125I]-R3/I5: radioiodinated R3/I5 chimera used as tracer (RAAPYGVRLCGREFIRAVIFTCGGSRWQDLQTLCCTDGCSMTDLSALC; ends and bridges not checked; also: radioiodinated (125I), site not given here)
- non-specific binding, in words (GPCR135; in presence of 1 uM unlabeled relaxin-3): lower non-specific binding than [^125I]-relaxin-3
- binding to LGR7, in words (LGR7): did not demonstrate significant binding to LGR7
